In patent publication US4409210A, “Antibiotic compound” (priority 1982, dated 1983):
Values after ≈ are worked out from the molar mass of the structure shown. Like-named read-outs stand apart in the source and are kept apart here.

Assays:
Assay type in all cases: cell-based
[1] = test system: Staphylococcus aureus Smith; assay: MIC, serial two-fold dilution method (aerobic); conditions: read-out: minimum inhibitory concentration (MIC)
[2] = test system: Staphylococcus aureus 209P; assay: MIC, serial two-fold dilution method (aerobic); conditions: read-out: minimum inhibitory concentration (MIC)
[3] = test system: Clostridium acidiurici A9560; assay: MIC, serial two-fold dilution method (anaerobic); conditions: Gottschalkia acidurici
[4] = test system: Micrococcus flavus D-12; assay: MIC, serial two-fold dilution method (aerobic)
[5] = test system: Staphylococcus aureus BX-1633; assay: MIC, serial two-fold dilution method (aerobic)
[6] = test system: Propionibacterium acnes A21953; assay: MIC, serial two-fold dilution method (anaerobic); conditions: Cutibacterium acnes
[7] = test system: Pseudomonas aeruginosa D-113; assay: MIC, serial two-fold dilution method (aerobic)
[8] = test system: Fusobacterium nucleatum A21906; assay: MIC, serial two-fold dilution method (anaerobic)
[9] = test system: Fusobacterium varium ATCC 8501; assay: MIC, serial two-fold dilution method (anaerobic)
[10] = test system: Peptococcus magnas A21676; assay: MIC, serial two-fold dilution method (anaerobic); conditions: read-out: minimum inhibitory concentration (MIC)
[11] = test system: Staphylococcus aureus A22421; assay: MIC, serial two-fold dilution method (aerobic)
[12] = test system: Clostridium ramosum A21970; assay: MIC, serial two-fold dilution method (anaerobic); conditions: Thomasclavelia ramosa
[13] = test system: Clostridium cylindrosporum A9562; assay: MIC, serial two-fold dilution method (anaerobic)
[14] = test system: Peptostreptococcus anaerobius A21905; assay: MIC, serial two-fold dilution method (anaerobic)
[15] = test system: Bacillus anthracis IID-115; assay: microbe, parasite or virus in culture; conditions: Bacillus anthracis, IID115, read-out: minimum inhibitory concentration (MIC)
[16] = test system: Propionibacterium acnes A21933; assay: MIC, serial two-fold dilution method (anaerobic); conditions: Cutibacterium acnes
[17] = test system: Proteus mirabilis A9554; assay: MIC, serial two-fold dilution method (aerobic)
[18] = test system: Bacteroides fragilis A21900; assay: MIC, serial two-fold dilution method (anaerobic)
[19] = test system: Bacteroides fragilis A20926; assay: MIC, serial two-fold dilution method (anaerobic)
[20] = test system: Bacteroides fragilis CUH-24; assay: MIC, serial two-fold dilution method (anaerobic)
[21] = test system: Bacillus subtilis ATCC 6633; assay: MIC, serial two-fold dilution method (aerobic)
[22] = test system: Staphylococcus aureus A20394; assay: MIC, serial two-fold dilution method (aerobic)
[23] = test system: Clostridium perfringens A22787; assay: microbe, parasite or virus in culture; conditions: Clostridium perfringens, A22787, read-out: minimum inhibitory concentration (MIC)
[24] = test system: Bacteroides ovatus A22400; assay: MIC, serial two-fold dilution method (anaerobic)
[25] = test system: Sarcina lutea PCI-1001; assay: MIC, serial two-fold dilution method (aerobic); conditions: Micrococcus luteus
[26] = test system: Klebsiella pneumoniae D-11; assay: MIC, serial two-fold dilution method (aerobic)
[27] = Staphylococcus aureus Smith, Mueller-Hinton agar, inoculum 10^4
[28] = Staphylococcus aureus 209P, Mueller-Hinton agar, inoculum 10^4
[29] = Clostridium acidiurici A9560, GAM agar medium, inoculum 10^7-10^8, read-out: minimum inhibitory concentration (MIC)
[30] = D12, Micrococcus flavus D-12, Mueller-Hinton agar, inoculum 10^4, read-out: minimum inhibitory concentration (MIC)
[31] = BX1633, Staphylococcus aureus BX-1633, Mueller-Hinton agar, inoculum 10^4, read-out: minimum inhibitory concentration (MIC)
[32] = Propionibacterium acnes A21953, GAM agar medium, inoculum 10^7-10^8, read-out: minimum inhibitory concentration (MIC)
[33] = D113, Pseudomonas aeruginosa D-113, Mueller-Hinton agar, inoculum 10^4, read-out: minimum inhibitory concentration (MIC)
[34] = Fusobacterium nucleatum A21906, GAM agar medium, inoculum 10^7-10^8, read-out: minimum inhibitory concentration (MIC)
[35] = ATCC8501, Fusobacterium varium ATCC 8501, GAM agar medium, inoculum 10^7-10^8, read-out: minimum inhibitory concentration (MIC)
[36] = Peptococcus magnas A21676, GAM agar medium, inoculum 10^7-10^8
[37] = Staphylococcus aureus A22421, Mueller-Hinton agar, inoculum 10^4, read-out: minimum inhibitory concentration (MIC)
[38] = Clostridium ramosum A21970, GAM agar medium, inoculum 10^7-10^8, read-out: minimum inhibitory concentration (MIC)
[39] = Clostridium cylindrosporum A9562, GAM agar medium, inoculum 10^7-10^8, read-out: minimum inhibitory concentration (MIC)
[40] = Peptostreptococcus anaerobius A21905, GAM agar medium, inoculum 10^7-10^8, read-out: minimum inhibitory concentration (MIC)
[41] = Propionibacterium acnes A21933, GAM agar medium, inoculum 10^7-10^8, read-out: minimum inhibitory concentration (MIC)
[42] = Proteus mirabilis A9554, Mueller-Hinton agar, inoculum 10^4, read-out: minimum inhibitory concentration (MIC)
[43] = Bacteroides fragilis A21900, GAM agar medium, inoculum 10^7-10^8, read-out: minimum inhibitory concentration (MIC)
[44] = Bacteroides fragilis A20926, GAM agar medium, inoculum 10^7-10^8, read-out: minimum inhibitory concentration (MIC)
[45] = CUH24, Bacteroides fragilis CUH-24, GAM agar medium, inoculum 10^7-10^8, read-out: minimum inhibitory concentration (MIC)
[46] = ATCC6633, Bacillus subtilis ATCC 6633, Mueller-Hinton agar, inoculum 10^4, read-out: minimum inhibitory concentration (MIC)
[47] = Staphylococcus aureus A20394, Mueller-Hinton agar, inoculum 10^4, read-out: minimum inhibitory concentration (MIC)
[48] = Bacteroides ovatus A22400, GAM agar medium, inoculum 10^7-10^8, read-out: minimum inhibitory concentration (MIC)
[49] = PCI1001, Sarcina lutea PCI-1001, Mueller-Hinton agar, inoculum 10^4, read-out: minimum inhibitory concentration (MIC)
[50] = D11, Klebsiella pneumoniae D-11, Mueller-Hinton agar, inoculum 10^4, read-out: minimum inhibitory concentration (MIC)

CC1(C)S[C@@H]2[C@H](NC(=O)[C@H](N)c3ccccc3)C(=O)N2[C@H]1C(=O)O [Ampicillin] was tested, and the MIC [1, 27] was 0.05 µg/mL (≈ 0.143 µM), the MIC [2, 28] was 0.013 µg/mL (≈ 0.0372 µM) and the MIC [3, 29] was 0.8 µg/mL (≈ 2.29 µM). It also gave an MIC [4, 30] of 0.1 µg/mL (≈ 0.286 µM), an MIC [5, 31] of 3.1 µg/mL (≈ 8.87 µM) and an MIC [6, 32] of under 0.0063 µg/mL. The MIC [7, 33] was over 100 µg/mL, the MIC [8, 34] was 12.5 µg/mL (≈ 35.8 µM) and the MIC [9, 35] was 12.5 µg/mL (≈ 35.8 µM). The MIC [10, 36] was 0.1 µg/mL (≈ 0.286 µM), the MIC [11, 37] was 12.5 µg/mL (≈ 35.8 µM) and the MIC [12, 38] was 0.8 µg/mL (≈ 2.29 µM). The MIC [13, 39] was 0.8 µg/mL (≈ 2.29 µM), the MIC [14, 40] was 0.1 µg/mL (≈ 0.286 µM) and the MIC [15] was 0.013 µg/mL (≈ 0.0372 µM). For the same compound, the MIC [16, 41] was 0.2 µg/mL (≈ 0.572 µM), the MIC [17, 42] was 0.8 µg/mL (≈ 2.29 µM) and the MIC [18, 43] was 0.2 µg/mL (≈ 0.572 µM). For the same compound, the MIC [19, 44] was 0.2 µg/mL (≈ 0.572 µM), the MIC [20, 45] was 50 µg/mL (≈ 143 µM) and the MIC [21, 46] was 0.013 µg/mL (≈ 0.0372 µM). The MIC [22, 47] was 3.1 µg/mL (≈ 8.87 µM), the MIC [23] was 0.1 µg/mL (≈ 0.286 µM) and the MIC [24, 48] was 25 µg/mL (≈ 71.5 µM). It also gave an MIC [25, 49] of under 0.05 µg/mL and an MIC [26, 50] of 0.8 µg/mL (≈ 2.29 µM).
CC[C@H]1OC(=O)[C@H](C)[C@@H](O[C@H]2C[C@@](C)(OC)[C@@H](O)[C@H](C)O2)[C@H](C)[C@@H](O[C@@H]2O[C@H](C)C[C@H](N(C)C)[C@H]2O)[C@](C)(O)C[C@@H](C)C(=O)[C@H](C)[C@@H](O)[C@]1(C)O [Erythromycin] was tested, and the MIC [1, 27] was 0.2 µg/mL (≈ 0.273 µM), the MIC [2, 28] was 0.1 µg/mL (≈ 0.136 µM) and the MIC [3, 29] was 1.6 µg/mL (≈ 2.18 µM). The MIC [4, 30] was under 0.05 µg/mL, the MIC [5, 31] was 0.2 µg/mL (≈ 0.273 µM) and the MIC [6, 32] was 0.8 µg/mL (≈ 1.09 µM). For the same compound, the MIC [7, 33] was 100 µg/mL (≈ 136 µM), the MIC [8, 34] was 1.6 µg/mL (≈ 2.18 µM) and the MIC [9, 35] was 1.6 µg/mL (≈ 2.18 µM). It also gave an MIC [10, 36] of 0.8 µg/mL (≈ 1.09 µM), an MIC [11, 37] of 6.3 µg/mL (≈ 8.58 µM) and an MIC [12, 38] of 0.1 µg/mL (≈ 0.136 µM). It also gave an MIC [13, 39] of 3.1 µg/mL (≈ 4.22 µM), an MIC [14, 40] of 0.8 µg/mL (≈ 1.09 µM) and an MIC [15] of 0.4 µg/mL (≈ 0.545 µM). It also gave an MIC [16, 41] of 1.6 µg/mL (≈ 2.18 µM), an MIC [17, 42] of over 100 µg/mL and an MIC [18, 43] of 0.4 µg/mL (≈ 0.545 µM). For the same compound, the MIC [19, 44] was under 0.05 µg/mL, the MIC [20, 45] was over 100 µg/mL and the MIC [21, 46] was under 0.05 µg/mL. For the same compound, the MIC [22, 47] was 0.2 µg/mL (≈ 0.273 µM), the MIC [23] was over 100 µg/mL and the MIC [24, 48] was over 100 µg/mL. For the same compound, the MIC [25, 49] was under 0.05 µg/mL and the MIC [26, 50] was 100 µg/mL (≈ 136 µM).
In the case of CN[C@H](CC(C)C)C(=O)N[C@H]1C(=O)N[C@@H](CC(N)=O)C(=O)N[C@H]2C(=O)N[C@H]3C(=O)N[C@H](C(=O)N[C@H](C(=O)O)c4cc(O)cc(O)c4-c4cc3ccc4O)[C@H](O)c3ccc(c(Cl)c3)Oc3cc2cc(c3O[C@@H]2O[C@H](CO)[C@@H](O)[C@H](O)[C@H]2O[C@H]2C[C@](C)(N)[C@H](O)[C@H](C)O2)Oc2ccc(cc2Cl)[C@H]1O [Vancomycin], the MIC ([1]; Staphylococcus aureus) was 0.8 µg/mL (≈ 0.552 µM), the MIC ([2]; Staphylococcus aureus, 209P) was 0.4 µg/mL (≈ 0.276 µM) and the MIC ([3]; A9560, read-out: minimum inhibitory concentration (MIC)) was 0.8 µg/mL (≈ 0.552 µM). For the same compound, the MIC ([4]; Micrococcus flavus, D12, read-out: minimum inhibitory concentration (MIC)) was 0.2 µg/mL (≈ 0.138 µM), the MIC ([5]; Staphylococcus aureus, BX1633, read-out: minimum inhibitory concentration (MIC)) was 0.8 µg/mL (≈ 0.552 µM) and the MIC ([6]; A21953, read-out: minimum inhibitory concentration (MIC)) was 0.8 µg/mL (≈ 0.552 µM). The MIC ([7]; Pseudomonas aeruginosa, D113, read-out: minimum inhibitory concentration (MIC)) was over 100 µg/mL, the MIC ([8]; Fusobacterium nucleatum, A21906, read-out: minimum inhibitory concentration (MIC)) was 0.8 µg/mL (≈ 0.552 µM) and the MIC ([9]; Fusobacterium varium, ATCC8501, read-out: minimum inhibitory concentration (MIC)) was 6.3 µg/mL (≈ 4.35 µM). It also gave an MIC [10] of under 0.05 µg/mL, an MIC ([11]; Staphylococcus aureus, A22421, read-out: minimum inhibitory concentration (MIC)) of 0.8 µg/mL (≈ 0.552 µM) and an MIC ([12]; A21970, read-out: minimum inhibitory concentration (MIC)) of over 100 µg/mL. It also gave an MIC ([13]; Clostridium cylindrosporum, A9562, read-out: minimum inhibitory concentration (MIC)) of 0.8 µg/mL (≈ 0.552 µM), an MIC ([14]; Peptostreptococcus anaerobius, A21905, read-out: minimum inhibitory concentration (MIC)) of 0.4 µg/mL (≈ 0.276 µM) and an MIC [15] of 1.6 µg/mL (≈ 1.1 µM). For the same compound, the MIC ([16]; A21933, read-out: minimum inhibitory concentration (MIC)) was 0.8 µg/mL (≈ 0.552 µM), the MIC ([17]; Proteus mirabilis, A9554, read-out: minimum inhibitory concentration (MIC)) was over 100 µg/mL and the MIC ([18]; Bacteroides fragilis, A21900, read-out: minimum inhibitory concentration (MIC)) was 6.3 µg/mL (≈ 4.35 µM). The MIC ([19]; Bacteroides fragilis, A20926, read-out: minimum inhibitory concentration (MIC)) was 3.1 µg/mL (≈ 2.14 µM), the MIC ([20]; Bacteroides fragilis, CUH24, read-out: minimum inhibitory concentration (MIC)) was 25 µg/mL (≈ 17.3 µM) and the MIC ([21]; Bacillus subtilis, ATCC6633, read-out: minimum inhibitory concentration (MIC)) was 0.1 µg/mL (≈ 0.069 µM). It also gave an MIC ([22]; Staphylococcus aureus, A20394, read-out: minimum inhibitory concentration (MIC)) of 0.4 µg/mL (≈ 0.276 µM), an MIC [23] of 0.8 µg/mL (≈ 0.552 µM) and an MIC ([24]; Bacteroides ovatus, A22400, read-out: minimum inhibitory concentration (MIC)) of 50 µg/mL (≈ 34.5 µM). It also gave an MIC ([25]; PCI1001, read-out: minimum inhibitory concentration (MIC)) of 0.4 µg/mL (≈ 0.276 µM) and an MIC ([26]; Klebsiella pneumoniae, D11, read-out: minimum inhibitory concentration (MIC)) of over 100 µg/mL.
